Patent publication US20210322582A1, “RADIOACTIVE IMIDAZOTHIADIAZOLE DERIVATIVE COMPOUND” (Nihon Medi-Physics Co., Ltd., priority 2018, published 2021)

Columns and labels:
[1] = tested on: CA-IX-negative MDA-MB-231 cells; assay: In vitro CA-IX affinity and specificity, cell binding, cells lysed at room temperature (Example 11); format: cell-based; conditions: AZ 50 μM, 21% or 1% oxygen, lysis at room temperature
Protocol: (§1) HT-29 cells (purchased from Dainippon Sumitomo Pharma Co., Ltd.) and MDA-MB-231 cells (purchased from Dainippon Sumitomo Pharma Co., Ltd.) were incubated in a 12-well plate (2.0×10^5 cells/well) at 37° C. for 24 hours under an atmosphere of 5% carbon dioxide and 21% oxygen, and then further incubated at 37° C. for 24 hours under an atmosphere of 5% carbon dioxide and 21% or 1% oxygen. After the culture medium was removed, Dulbecco's modified Eagle's medium (DMEM, 1 mL) containing[^111In]ITDA1 (14 kBq), [^111In]ITDA2 (26 kBq), or [^111In]ITDA3 (37 kBq) was added to each well, and then the incubation was performed at 37° C. for 2 hours under an atmosphere of 5% carbon dioxide and 21% or 1% oxygen. In addition, a separate plate was incubated in a similar manner as in the above except that acetazolamide (AZ, 50 μM) was added to [^111In]ITDA1 (14 kBq), [^111In]ITDA2 (26 kBq), or [^111In]ITDA3 (37 kBq) as a competitive compound for CA-IX. After that, each well was washed with 1 mL of phosphate-buffered saline (PBS, pH 7.4) (manufactured by NACALAI TESQUE, INC.), and the cells were lysed at room temperature in an aqueous solution of 1 N sodium hydroxide ([^111In]ITDA1: 0.25 mL×2, [^111In]ITDA2: 0.5 mL×2, and [^111In]ITDA3: 0.2 mL×2). The amount of radioactivity bound to the cells was measured by a gamma counter (model name: Wallac 1470 Wizard, PerkinElmer, Massachusetts, made in U.S.A., the same applies to the following examples).
(§2) FIG. 3A is a graph showing whether or not the affinity of compound [^111In]ITDA1 for CA-IX in each of the HT-29 cells and the MDA-MB-231 cells is inhibited by the coexistence of acetazolamide (AZ). Further, FIG. 3B is a graph showing whether or not the affinity of compound [^111In]ITDA2 for CA-IX in each of the HT-29 cells and the MDA-MB-231 cells is inhibited by the coexistence of acetazolamide (AZ). Moreover, FIG. 3C is a graph showing whether or not the affinity of compound [^111In]ITDA3 for CA-IX in each of the HT-29 cells and the MDA-MB-231 cells is inhibited by the coexistence of acetazolamide (AZ).

[2] = tested on: CA-IX-positive HT-29 cells; assay: as above; format: cell-based; conditions: for Inhibition of cell binding by acetazolamide: HT-29 cells, AZ 50 μM, 21% or 1% oxygen, lysis at room temperature; for Selectivity of binding to CA-IX: HT-29 vs MDA-MB-231 cells, room temperature lysis
Protocol: as §1, §2

[3] = 1-octanol/PBS (pH 7.4) partition coefficient; format: physicochemical
Protocol: The 1-octanol/PBS (pH 7.4) partition coefficients of [^111In]ITDA1 and [^111In]ITDA2, which were obtained in Example 6, and [^111In]ITDA3 obtained in Example 10 were measured.
The above two phases were saturated with each other in advance, and 1-octanol (3 mL) and PBS (3 mL) were pipetted into a 15-mL test tube containing [^111In]ITDA1 (37 kBq), [^111In]ITDA2 (37 kBq), or [^111In]ITDA3 (370 kBq). The test tube was vortexed for 2 minutes and centrifuged (4,000 g, 5 minutes). 0.5 mL was taken from each of the 1-octanol phase and the PBS phase, and transferred to two test tubes, respectively for measurement. The residual PBS phase (1 mL), and newly prepared 1-octanol (3 mL) and PBS (2 mL) were pipetted into a new test tube. The amount of radioactivity in each test tube was measured by using a gamma counter. The partition coefficient was calculated by using the equation log Pow=log10[count1-octanol/countPBS]. As a result, the log Pow of [^111In]ITDA1 was −3.72±0.05, the log Pow of [^111In]ITDA2 was −2.32±0.01, and the log Pow of [^111In]ITDA3 was −3.47±0.09.

[4] = In vitro stability in mouse plasma; format: in vitro ADME; conditions: 37° C.; for Stability in mouse plasma: 24-hour incubation; for Stability (intact (%)): mouse plasma
Protocol: Blood was collected from a ddy mouse (purchased from Shimizu Laboratory Supplies Co., Ltd.), and centrifuged (1,200 g, 10 minutes) in a venous blood collection tube (manufactured by Becton, Dickinson and Company). The blood plasma (200 μL) was separated, a saline solution (185 kBq) of [^111In]ITDA1, [^111In]ITDA2, or [^111In]ITDA3 was added into the blood plasma, and the obtained mixture was incubated at 37° C. for 1, 4, 8, and for 24 hours (n=3). Further, into the incubated mixture, acetonitrile (200 μL) was added, and then the mixture was centrifuged (10,000 g, 5 minutes), the supernatant was filtered with COSMONICE Filter (S) (0.45 μm, 4 mm) (manufactured by NACALAI TESQUE, INC.), and the filtrate was analyzed by RP-HPLC under the following conditions. In this regard, the intact % in FIGS. 4A and 4B was determined from the area percentage of the RP-HPLC elution pattern.
Column: Cosmosil Cis column (5C18-PAQ, 4.6×250 mm)
Mobile phase: water/acetonitrile/trifluoroacetic acid (90: 10: 0.1 (0 min)→60: 40: 0.1 (30 min)), and flow rate for analysis: 1.0 mL/min

[5] = tested on: CA-IX-negative MDA-MB-231 cells; assay: In vitro CA-IX affinity and specificity, cell binding, cells lysed at 37° C. (Example 18); format: cell-based; conditions: for Inhibition of cell binding by acetazolamide: MDA-MB-231 cells, normoxic and hypoxic, lysis at 37° C.
Protocol: as §1
(§3) Example 18 was performed similarly as in Example 11 except that the cells were lysed in a constant temperature water bath at 37° C. The accumulation of radioactivity in each cell was expressed by % initial dose/mg protein obtained by dividing the ratio of the amount of radioactivity bound to each cell to the added amount of radioactivity by the amount of cell protein.

[6] = tested on: CA-IX-positive HT-29 cells; assay: as above; format: cell-based; conditions: for Inhibition of cell binding by acetazolamide: HT-29 cells, normoxic and hypoxic; for Inhibition of cell binding by acetazolamide / Selectivity of binding to CA-IX: lysis at 37° C.; for Selectivity of binding to CA-IX: HT-29 vs MDA-MB-231 cells
Protocol: as §1, §3

[7] = 1% Oxygen AZ(+), acetazolamide 50 μM
[8] = 21% Oxygen AZ(+), acetazolamide 50 μM

Row | SMILES | Inhibition of cell binding by acetazolamide [1] | Inhibition of cell binding by acetazolamide [2] | Selectivity of binding to CA-IX [2] | log Pow [3] | Stability in mouse plasma [4] | Amount of binding to MDA-MB-231 cells [5, 7] | Amount of binding to MDA-MB-231 cells ([5]; 1% Oxygen AZ(−)) | Amount of binding to MDA-MB-231 cells [5, 8] | Amount of binding to MDA-MB-231 cells ([5]; 21% Oxygen AZ(−)) | Inhibition of cell binding by acetazolamide [5] | Amount of binding to HT-29 cells [6, 7] | Amount of binding to HT-29 cells ([6]; 1% Oxygen AZ(−)) | Amount of binding to HT-29 cells [6, 8] | Amount of binding to HT-29 cells ([6]; 21% Oxygen AZ(−)) | Inhibition of cell binding by acetazolamide [6] | Selectivity of binding to CA-IX [6] | further results
1 | NS(=O)(=O)c1nn2cc(-c3ccc(NC(=O)CN4CCN(CC(=O)O)CCN(CC(=O)O)CCN(CC(=O)O)CC4)cc3)nc2s1.[111In+3] [[^111In]ITDA1, [^111In]indium(III)2,2′,2″-(10-(2-oxo-2-((4-(2-sulfamoylimidazo[2,1-b][1,3,4]thiadiazol-6-yl)phenyl)amino)ethyl)-1,4,7,10-tetraazacyclododecan-1,4,7-triyl) triacetic acid] | the competitive inhibition was not observed | the inhibition was observed in the presence of acetazolamide | selectively bind to the CA-IX | −3.72±0.05 | sufficient stability | 0.1 ± 0.0 % initial dose/mg protein | 6.5 ± 0.8 % initial dose/mg protein | 0.1 ± 0.0 % initial dose/mg protein | 1.4 ± 0.3 % initial dose/mg protein | the competitive inhibition was not observed | 2.2 ± 0.5 % initial dose/mg protein | 198.9 ± 5.7 % initial dose/mg protein | 0.9 ± 0.2 % initial dose/mg protein | 118.1 ± 21.4 % initial dose/mg protein | the inhibition was observed in the presence of acetazolamide | selectively bind to the CA-IX | –
2 | NS(=O)(=O)c1nn2cc(-c3ccc(NC(=O)CN4CCN(CC(=O)O)CCN(CC(=O)Nc5ccc(-c6cn7nc(S(N)(=O)=O)sc7n6)cc5)CCN(CC(=O)O)CC4)cc3)nc2s1.[111In+3] [[^111In]ITDA2, [^111In]indium(III)2,2′-(4,10-bis(2-oxo-2-((4-(2-sulfamoylimidazo[2,1-b][1,3,4]thiadiazol-6-yl)phenyl)amino)ethyl)-1,4,7,10-tetraazacyclododecan-1,7-diyl) diacetic acid] | the competitive inhibition was not observed | the inhibition was observed in the presence of acetazolamide | selectively bind to the CA-IX | −2.32±0.01 | sufficient stability | 0.7 ± 0.1 % initial dose/mg protein | 2.9 ± 0.4 % initial dose/mg protein | 1.4 ± 0.2 % initial dose/mg protein | 2.5 ± 0.5 % initial dose/mg protein | the competitive inhibition was not observed | 12.1 ± 3.7 % initial dose/mg protein | 109.2 ± 6.7 % initial dose/mg protein | 7.6 ± 2.3 % initial dose/mg protein | 48.3 ± 5.9 % initial dose/mg protein | the inhibition was observed in the presence of acetazolamide | selectively bind to the CA-IX | –
3 | NS(=O)(=O)c1nn2cc(-c3ccc(NC(=O)CCC(C(=O)O)N4CCN(CC(=O)[O-])CCN(CC(=O)[O-])CCN(CC(=O)[O-])CC4)cc3)nc2s1.[111In+3] (stereo not shown) [[^111In]ITDA3] | the competitive inhibition was not observed | the inhibition was observed in the presence of acetazolamide | selectively bind to the CA-IX | −3.47±0.09 | – | 0.1 ± 0.0 % initial dose/mg protein | 2.0 ± 1.1 % initial dose/mg protein | 0.2 ± 0.0 % initial dose/mg protein | 0.5 ± 0.1 % initial dose/mg protein | the competitive inhibition was not observed | 1.0 ± 0.1 % initial dose/mg protein | 93.4 ± 16.0 % initial dose/mg protein | 0.3 ± 0.0 % initial dose/mg protein | 47.2 ± 6.8 % initial dose/mg protein | the inhibition was observed in the presence of acetazolamide | selectively bind to the CA-IX | Stability (intact %) in mouse plasma ([4]; incubation for 1 to 24 hours): ≥ 95%; Stability (intact (%)) ([4]; 1 h): 97.4 ± 0.8%; Stability (intact (%)) ([4]; 4 h): 99.0 ± 0.6%; Stability (intact (%)) ([4]; 8 h): 98.0 ± 0.1%; Stability (intact (%)) ([4]; 24 h): 98.8 ± 0.4%
